# According to patent publication US11879012B2, “Method of modulating cell proliferation” (METRO NORTH HOSPITAL AND HEALTH SERVICE, priority 2018, dated 2024):
# B1: PSGL-1: pre-bound selectin receptor, P-selectin glycoprotein ligand-1 (protein, UniProt Q14242 42-412, looked up)
# P-selectin glycoprotein …: QATEYEYLDYDFLPETEPPEMLRNSTDTTPLTGPGTPESTTVEPAARRSTGLDAGGAVTELTTELANMGNLSTDSAAMEIQTTQPAATEAQTTQPVPTEAQTTPLAATEAQTTRLTATEAQTTPLAATEAQTTPPAATEAQTTQPTGLEAQTTAPAAMEAQTTAPAAMEAQTTPPAAMEAQTTQTTAMEAQTTAPEATEAQTTQPTATEAQTTPLAAMEALSTEPSATEALSMEPTTKRGLFIPFSVSSVTHKGIPMAASNLSVNYPVGAPDHISVKQCLLAILILALVATIFFVCTVVLAVRLSRKGHMYPVRNYSPTEMVCISSLLPDGGEGPSATANGGLSKAKSPGLTPEPREDREGDDLTLHSFLP
# B2: P-selectin: pre-bound recombinant human P-selectin (protein, UniProt P16109 42-830, looked up)
# P-selectin: WTYHYSTKAYSWNISRKYCQNRYTDLVAIQNKNEIDYLNKVLPYYSSYYWIGIRKNNKTWTWVGTKKALTNEAENWADNEPNNKRNNEDCVEIYIKSPSAPGKWNDEHCLKKKHALCYTASCQDMSCSKQGECLETIGNYTCSCYPGFYGPECEYVRECGELELPQHVLMNCSHPLGNFSFNSQCSFHCTDGYQVNGPSKLECLASGIWTNKPPQCLAAQCPPLKIPERGNMTCLHSAKAFQHQSSCSFSCEEGFALVGPEVVQCTASGVWTAPAPVCKAVQCQHLEAPSEGTMDCVHPLTAFAYGSSCKFECQPGYRVRGLDMLRCIDSGHWSAPLPTCEAISCEPLESPVHGSMDCSPSLRAFQYDTNCSFRCAEGFMLRGADIVRCDNLGQWTAPAPVCQALQCQDLPVPNEARVNCSHPFGAFRYQSVCSFTCNEGLLLVGASVLQCLATGNWNSVPPECQAIPCTPLLSPQNGTMTCVQPLGSSSYKSTCQFICDEGYSLSGPERLDCTRSGRWTDSPPMCEAIKCPELFAPEQGSLDCSDTRGEFNVGSTCHFSCDNGFKLEGPNNVECTTSGRWSATPPTCKGIASLPTPGVQCPALTTPGQGTMYCRHHPGTFGFNTTCYFGCNAGFTLIGDSTLSCRPSGQWTAVTPACRAVKCSELHVNKPIAMNCSNLWGNFSYGSICSFHCLEGQLLNGSAQTACQENGHWSTTVPTCQAGPLTIQEALTYFGGAVASTIGLIMGGTLLALLRKRFRQKDDGKCPLNPHSHLGTYGVFTNAAFDPSP
# B3: vitronectin: pre-bound basement membrane protein (protein, UniProt P04004 20-478, looked up)
# Vitronectin: DQESCKGRCTEGFNVDKKCQCDELCSYYQSCCTDYTAECKPQVTRGDVFTMPEDEYTVYDDGEEKNNATVHEQVGGPSLTSDLQAQSKGNPEQTPVLKPEEEAPAPEVGASKPEGIDSRPETLHPGRPQPPAEEELCSGKPFDAFTDLKNGSLFAFRGQYCYELDEKAVRPGYPKLIRDVWGIEGPIDAAFTRINCQGKTYLFKGSQYWRFEDGVLDPDYPRNISDGFDGIPDNVDAALALPAHSYSGRERVYFFKGKQYWEYQFQHQPSQEECEGSSLSAVFEHFAMMQRDSWEDIFELLFWGRTSAGTRQPQFISRDWHGVPGQVDAAMAGRIYISGMAPRPSLAKKQRFRHRNRKGYRSQRGHSRGRNQNSRRPSRATWLSLFSSEESNLGANNYDDYRMDWLVPATCEPIQSVFFFSGDKYYRVNLRTRRVDTVDPPYPRSIAQYWLGCPAPGHL
# Tests used:
# [1] = test system: microvascular endothelial cells (MEC); test: MTT assay, metabolic response of microvascular endothelial cells; format: cell-based
# Experimental: (§1) Measurement of mitochondrial enzyme activity by MTT conversion was utilised as an indirect assessment of metabolic and proliferative activity. MTT reagent was prepared by diluting the MTT stock solution (5 mg/mL) 1:10 in PBS (i.e., to a final concentration of 0.5 mg/mL MTT). Prior optimization of growth conditions (seeding density and duration in culture) was conducted to ensure sub-confluency at the time of measurement. For example, a seeding density of 10,000 cells per cm^2 and a culture period of 48-hours were routinely used. On the day of analysis, the culture medium was removed from each well and replaced with a fixed volume (0.5 mL per well of a 24 well plate) of MTT solution and incubated at 37° C. for 40 minutes. The MTT reagent was subsequently removed and the formazan product eluted by adding a fixed volume (300 μL per well of a 24 well plate) of acidified isopropanol (24.6 μL of concentrated HCL in 20 mL of isopropanol) to each well for approximately 5 minutes, 150 μL of the eluted stain from each well was then transferred into corresponding wells of a 96 well plate. The optical density was measured using a plate reader at 550 nm (background 620 nm). Microvascular endothelial cells (MEC) were cultured in MEC Culture Medium comprising 500 mL of MCDB-131 media containing 5 mL of 1M L-Glutamine, 5 Penicillin (10,000 IU/mL)/Streptomycin (10,000 ug/mL), 10% v/v foetal calf serum (FCS), 0.5 mL of 1 mg/mL hydrocortisone (Hc) and 0.5 mL of 10 ug/mL epidermal growth factor (EGF). Spent culture media was removed and the flask rinsed with 5 mL of phosphate buffered saline (without magnesium or calcium; PBSA). After 30 seconds, the PBSA was removed and 5 mL of 0.02% EDTA/0.05% trypsin reagent was added to the cells. The flask was then incubated at 37° C. for 5-8 minutes. The cells were then dislodged from the flask, removed and added to a 50 mL centrifuge tube containing an equal volume of culture media to neutralize the 0.02% EDTA/0.05% trypsin reagent. This tube was then centrifuged at 100 g for 5 minutes to form a pellet of cells. The supernatant was removed and the pellet of cells resuspended. The diluted cells were split 1:3 into new flasks containing culture media. The flasks were then placed in a humidified CO2 (5%) incubator at 37° C. until the cells were approximately 80% confluent. The process was repeated weekly. For the purpose of serum-free culturing, the MEC and LEC cells were serum starved by incubating them in serum-free MCDB-131 medium (Gibco/Life Technologies) for 12 hours. Limbal epithelial cells (LEC) were cultured in a similar manner to MEC in LEC Culture Medium comprising 500 mL of DMEM/F12 media containing 5 mL of 1M L-Glutamine, 5 mL of Pen (10,000 IU/mL)/Strep (10,000 ug/mL) and 10% FCS (v/v). Additional reagents used in these experiments are described below: • 0.02% EDTA/0.05% trypsin reagent: 5 mL of 2% EDTA solution and 10 mL of thawed 2.5% trypsin solution were added to 485 mL of PBSA, 50 mL aliquots were dispensed into 50 mL centrifuge tubes and stored below −20° C. • Pre-bound Collagen IV: 250 μL of Collagen IV stock solution was added to the wells of a 24 well tissue culture plate and allowed to dry completely over night in a biohazard cabinet. • Pre-bound Vitronectin: a vitronectin stock solution (2 mg/mL) was diluted in water to a final concentration of 5 μg/mL. […]
# [2] = test system: limbal epithelial cells (LEC); test: MTT assay, metabolic response of limbal epithelial cells; format: cell-based; conditions: FIG. 8
# Experimental: as §1, with “nm).” for “nm). Microvascular endothelial cells (MEC) were cultured in MEC Culture Medium comprising 500 mL of MCDB-131 media containing 5 mL of 1M L-Glutamine, 5 Penicillin (10,000 IU/mL)/Streptomycin (10,000 ug/mL), 10% v/v foetal calf serum (FCS), 0.5 mL of 1 mg/mL hydrocortisone (Hc) and 0.5 mL of 10 ug/mL epidermal growth factor (EGF).”, “(v/v).” for “(v/v). Additional reagents used in these experiments are described below: • 0.02% EDTA/0.05% trypsin reagent: 5 mL of 2% EDTA solution and 10 mL of thawed 2.5% trypsin solution were added to 485 mL of PBSA, 50 mL aliquots were dispensed into 50 mL centrifuge tubes and stored below −20° C. • Pre-bound Collagen IV: 250 μL of Collagen IV stock solution was added to the wells of a 24 well tissue culture plate and allowed to dry completely over night in a biohazard cabinet. • Pre-bound Vitronectin: a vitronectin stock solution (2 mg/mL) was diluted in water to a final concentration of 5 μg/mL.”
# [3] = agent alone, serum-starved cells, 2 days, glucose 10 mg/mL, thrombin 100 IU/mL, FIG. 7
# [4] = agent alone, serum-starved cells, 2 days, glucose 10 mg/mL, thrombin 100 IU/mL
molecule,measurement,setting,value
anti-thrombin III,proliferation of MEC,"[1]; ATIII 10 IU/mL in the presence of thrombin (+glucose) and pre-bound PSGL-1, FIG. 9",stimulated the proliferation of MEC
thrombin,proliferation of MEC,"[1]; 100 IU/mL thrombin with glucose, FIG. 7","stimulated proliferation of MEC in synergy with glucose, exceeding the positive control"
same,proliferation of MEC,[1]; [3],did not significantly stimulate proliferation of endothelium
same,proliferation of LEC,[2]; [4],did not significantly stimulate proliferation
same,proliferation of LEC,[2]; glucose with thrombin,did not significantly stimulate proliferation
B1,thrombin induced proliferation of LEC,"[2]; pre-bound, in the presence of glucose",stimulated thrombin induced proliferation of LEC
B2,thrombin-induced proliferation of MEC,"[1]; pre-bound, in the presence of glucose, absence of collagen IV and vitronectin, FIG. 7",reduced the thrombin-induced proliferation of MEC
B3,proliferation of MEC,[1]; [3],did not significantly stimulate proliferation of endothelium
same,proliferation of LEC,[2]; [4],did not significantly stimulate proliferation
